Test results taken from PubChem BioAssay (NCI).
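Following 48 hours of exposure in 96-well plates, responses at five concentrations were used to interpolate endpoints linearly. TGI: concentration producing complete growth inhibition.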

Columns and labels:
Assay in all cases: DTP human tumour cell line panel, 48 h
[1] = system: HOP-62 NSCLC
[2] = system: NCI/ADR-RES ovarian
[3] = system: HT29 colon
[4] = system: 786-0 renal
[5] = system: COLO 205 colon
[6] = system: RPMI-8226 leukemia
[7] = system: U251 CNS
[8] = system: UACC-62 melanoma
[9] = system: TK-10 renal
[10] = system: DU-145 prostate
[11] = system: SK-MEL-5 melanoma
[12] = system: HL-60(TB) leukemia
[13] = system: RXF 393 renal
[14] = system: SNB-19 CNS
[15] = system: UO-31 renal
[16] = system: NCI-H522 lung
[17] = system: K-562 leukemia
[18] = system: HCT-116 colon
[19] = system: HOP-92 NSCLC
[20] = system: MOLT-4 leukemia
[21] = system: ACHN renal
[22] = system: OVCAR-5 ovarian
[23] = system: T-47D breast
[24] = system: LOX IMVI melanoma
[25] = system: UACC-257 melanoma
[26] = system: SNB-75 CNS
[27] = system: HS 578T breast
[28] = system: CAKI-1 renal
[29] = system: IGROV1 ovarian
[30] = system: OVCAR-3 ovarian
[31] = system: KM12 colon
[32] = system: SF-295 CNS
[33] = system: PC-3 prostate
[34] = system: SK-MEL-28 melanoma
[35] = system: NCI-H23 lung
[36] = system: BT-549 breast
[37] = system: A498 renal
[38] = system: HCT-15 colon
[39] = system: SK-OV-3 ovarian
[40] = system: OVCAR-8 ovarian
[41] = system: NCI-H226 lung
[42] = system: MDA-N
[43] = system: A549 NSCLC
[44] = system: M14 melanoma
[45] = system: EKVX NSCLC
[46] = system: MALME-3M melanoma
[47] = system: SK-MEL-2 melanoma
[48] = system: MDA-MB-231 breast
[49] = system: SF-268 CNS
[50] = system: SW-620 colon
[51] = system: SR leukemia
[52] = system: CCRF-CEM leukemia
[53] = system: SN12C renal
[54] = system: OVCAR-4 ovarian
[55] = system: MDA-MB-435
[56] = system: SF-539 CNS
[57] = system: NCI-H460 lung
[58] = system: HCC-2998 colon
[59] = system: MCF7 breast

With `O=S(=O)(O)c1ccc2c(N=Nc3cccc4ccccc34)c(O)ccc2c1` the TGI [1] was over 100 µM, the TGI [2] was over 100 µM and the TGI [3] was over 100 µM. The TGI [4] was over 100 µM, the TGI [5] was over 100 µM and the TGI [6] was over 100 µM. For the same compound, the TGI [7] was over 100 µM, the TGI [8] was over 100 µM and the TGI [9] was over 100 µM. The TGI [10] was over 100 µM, the TGI [11] was over 100 µM and the TGI [12] was over 100 µM. The TGI [13] was over 100 µM, the TGI [14] was over 100 µM and the TGI [15] was over 100 µM. For the same compound, the TGI [16] was over 100 µM, the TGI [17] was over 100 µM and the TGI [18] was over 100 µM. It also gave a TGI [19] of over 100 µM, a TGI [20] of over 100 µM and a TGI [21] of over 100 µM. The TGI [22] was over 100 µM, the TGI [23] was over 100 µM and the TGI [24] was over 100 µM. For the same compound, the TGI [25] was over 100 µM, the TGI [26] was over 100 µM and the TGI [27] was over 100 µM. It also gave a TGI [28] of over 100 µM, a TGI [29] of over 100 µM and a TGI [30] of over 100 µM. For the same compound, the TGI [31] was over 100 µM, the TGI [32] was over 100 µM and the TGI [33] was over 100 µM. The TGI [34] was over 100 µM, the TGI [35] was over 100 µM and the TGI [36] was over 100 µM. The TGI [37] was over 100 µM, the TGI [38] was over 100 µM and the TGI [39] was over 100 µM. It also gave a TGI [40] of over 100 µM, a TGI [41] of over 100 µM and a TGI [42] of over 100 µM. It also gave a TGI [43] of over 100 µM, a TGI [44] of over 100 µM and a TGI [45] of over 100 µM. For the same compound, the TGI [46] was over 100 µM, the TGI [47] was over 100 µM and the TGI [48] was over 100 µM. The TGI [49] was over 100 µM, the TGI [50] was over 100 µM and the TGI [51] was over 100 µM. The TGI [52] was over 100 µM, the TGI [53] was over 100 µM and the TGI [54] was over 100 µM. The TGI [55] was over 100 µM.

Work on `c1ccc(-c2csc3c2-n2cccc2C3N2CCCC2)cc1` (centres undefined) yielded a TGI [1] of over 100 µM, a TGI [2] of over 100 µM and a TGI [3] of over 100 µM. The TGI [4] was over 100 µM, the TGI [6] was over 100 µM and the TGI [7] was over 100 µM. The TGI [56] was over 100 µM, the TGI [9] was 99.7 µM and the TGI [10] was over 100 µM. The TGI [11] was 22.6 µM, the TGI [12] was over 100 µM and the TGI [13] was over 100 µM. It also gave a TGI [14] of over 100 µM, a TGI [15] of over 100 µM and a TGI [16] of over 100 µM. It also gave a TGI [17] of over 100 µM, a TGI [18] of over 100 µM and a TGI [19] of 81.9 µM. The TGI [20] was over 100 µM, the TGI [21] was over 100 µM and the TGI [22] was over 100 µM. The TGI [57] was over 100 µM, the TGI [24] was over 100 µM and the TGI [25] was 39.9 µM. For the same compound, the TGI [58] was over 100 µM, the TGI [26] was over 100 µM and the TGI [27] was over 100 µM. It also gave a TGI [28] of over 100 µM, a TGI [29] of over 100 µM and a TGI [30] of over 100 µM. It also gave a TGI [31] of over 100 µM, a TGI [32] of over 100 µM and a TGI [33] of over 100 µM. For the same compound, the TGI [34] was over 100 µM, the TGI [35] was over 100 µM and the TGI [36] was 34.4 µM. It also gave a TGI [37] of over 100 µM, a TGI [38] of over 100 µM and a TGI [40] of over 100 µM. For the same compound, the TGI [59] was over 100 µM, the TGI [41] was over 100 µM and the TGI [42] was over 100 µM. For the same compound, the TGI [43] was over 100 µM, the TGI [45] was over 100 µM and the TGI [46] was over 100 µM. It also gave a TGI [47] of over 100 µM, a TGI [48] of over 100 µM and a TGI [49] of 78.7 µM. It also gave a TGI [50] of over 100 µM, a TGI [51] of over 100 µM and a TGI [52] of over 100 µM. The TGI [53] was over 100 µM, the TGI [54] was over 100 µM and the TGI [55] was over 100 µM.
